Legend:
[1] = tested on: patient having deep corneal abrasion; assay: Example C: saline-based drops for a patient having deep corneal abrasion; type: in vivo, human; settings: 5% w/w drop to each eye twice a day
Excerpt: A saline-based composition for local administration, according to the present invention, is made comprising:
A patient having deep corneal abrasion applies the drop to each eye twice a day.

[2] = tested on: patient suffering from chemical burns; assay: Example D: topical composition for a patient suffering from chemical burns; type: in vivo, human; settings: 0.20% w/v topical composition at each dressing change (b.i.d.)
Excerpt: A topical composition for local administration, according to the present invention, is made comprising:
A patient suffering from chemical burns applies the composition at each dressing change (b.i.d.).

[3] = tested on: human subject suffering from osteoarthritis; assay: Example B: capsule given to a human subject suffering from osteoarthritis; type: in vivo; settings: capsule containing 70 mg daily for 5 years, 90 kg person
Description: A capsule for oral administration, according to the present invention, is made comprising:
A human subject weighing 90 kg (198 lbs.), suffering from osteoarthritis, is treated by a method of this invention. Specifically, for 5 years, a capsule containing 70 mg of the compound of Example 3 is administered daily to said subject.

[4] = tested on: human subject with a premetastatic tumor; assay: Example G: parenteral suspension injected next to a premetastatic tumor; type: in vivo; settings: about 2.0 mL of 100 mg/mL suspension injected beside the tumor twice daily; after 30 days
Description: A composition for parenteral administration is made comprising:
The above ingredients are mixed, forming a suspension. Approximately 2.0 mL of the suspension is administered, via injection, to a human subject with a premetastatic tumor. The injection site juxtaposes the tumor. This dosage is repeated twice daily, for approximately 30 days.

[5] = tested on: human subject suffering from rheumatoid arthritis; assay: Example A: tablet given to a human subject suffering from rheumatoid arthritis; type: in vivo; settings: three tablets (15 mg compound each) per day orally for 2 years, 60 kg person
Description: A tablet composition for oral administration, according to the present invention, is made comprising:
A human subject weighing 60 kg (132 lbs), suffering from rheumatoid arthritis, is treated by a method of this invention. Specifically, for 2 years, a regimen of three tablets per day is administered orally to said subject.

asthma sufferer = assay: Example E: inhalation aerosol for an asthma sufferer; type: in vivo, human; settings: 5.0% w/v aerosol, 0.01 mL sprayed into the mouth while inhaling
Description: An inhalation aerosol composition, according to the present invention, is made comprising: [table] An asthma sufferer sprays 0.01 mL via a pump actuator into the mouth while inhaling. Asthma symptoms are diminished.

## COc1ccc(-c2ccc(S(=O)(=O)NC(C(=O)O)C3CCC(O)CC3)cc2)cc1 (centres unmarked) [Example 1, N-{[4′-Methoxy-(1,1′-biphenyl)-4-yl]-sulfonylamino}-(4-hydroxycyclohexan-1-yl)-acetic Acid]
[1]
  healing of deep corneal abrasion: speeded
  visual sequelae: no visual sequelae

## O=C(O)[C@H](NS(=O)(=O)c1ccc(-c2ccc(Br)cc2)cc1)C1CCC2(CC1)OCCCO2 [Example 3, (R)-N-{[4′-bromo-(1,1′-biphenyl)-4-yl]-sulfonyl}-amino-(1,5-dioxa-spiro[5.5]undec-9-yl)-acetic]
[2]
  scarring: substantially diminished
[3]
  advancement of erosion/fibrillation of the articular cartilage (x-ray, arthroscopy and/or MRI): no further advancement

## COc1ccc(-c2ccc(S(=O)(=O)NC(C(=O)O)C3CCCC(N(Cc4ccccc4)S(C)(=O)=O)C3)cc2)cc1 (centres unmarked) [Example 31, N-{[4′-methoxy-(1,1′-biphenyl)-4-yl]-sulfonyl}-amino-[3-(N-benzyl-N-methanesulfonylamino)-cyclohexan-1-yl]-acetic acid]
[4]
  symptoms of the disease: subside
[5]
  inflammation at the end of the treatment period: reduced inflammation
  mobility at the end of the treatment period: improved mobility without concomitant pain

## COc1ccc(-c2ccc(S(=O)(=O)NC(C(=O)O)C3CCCC(N(C)C(C)=O)C3)cc2)cc1 (centres unmarked) [Example 33, N-{[4′-methoxy-(1,1-biphenyl)-4-yl]-sulfonyl}-amino-[3-(N-methyl-N-acetylamino)-cyclohexan-1-yl]-acetic Acid]
Asthma sufferer
  asthma symptoms: diminished

Source: US20030162778A1, “Carbocyclic side chain containing metalloprotease inhibitors” (The Procter and Gamble Company, priority 2000, published 2003)
